Test results reported in ChEMBL document CHEMBL1201862, “PubChem BioAssay data set” (2004).
Calls of active or inactive are those of the source.

What was measured:
Protein Tat = biological target: T1, Protein Tat (Human immunodeficiency virus type 1 group M subtype B (isolate HXB2)(HIV-1), UniProt P04608); type: functional;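 also: tat binding to TAR RNA read out by fluorescence polarization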
T1 sequence (P04608 whole entry): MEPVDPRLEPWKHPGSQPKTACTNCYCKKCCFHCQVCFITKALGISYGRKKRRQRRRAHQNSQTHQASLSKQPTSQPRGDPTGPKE

[1] = biological target: DNA dC->dU-editing enzyme APOBEC-3G (Homo sapiens, UniProt Q9HC16); experiment: Dose Response confirmation of small molecule APOBEC3G DNA Deaminase Inhibitors via a fluorescence-based single-stranded DNA deaminase assay. [Related pubchem assays (depositor defined):AID493012, AID493028]; type: functional
Chain of DNA dC->dU-editing enzyme APOBEC-3G (Q9HC16 whole entry): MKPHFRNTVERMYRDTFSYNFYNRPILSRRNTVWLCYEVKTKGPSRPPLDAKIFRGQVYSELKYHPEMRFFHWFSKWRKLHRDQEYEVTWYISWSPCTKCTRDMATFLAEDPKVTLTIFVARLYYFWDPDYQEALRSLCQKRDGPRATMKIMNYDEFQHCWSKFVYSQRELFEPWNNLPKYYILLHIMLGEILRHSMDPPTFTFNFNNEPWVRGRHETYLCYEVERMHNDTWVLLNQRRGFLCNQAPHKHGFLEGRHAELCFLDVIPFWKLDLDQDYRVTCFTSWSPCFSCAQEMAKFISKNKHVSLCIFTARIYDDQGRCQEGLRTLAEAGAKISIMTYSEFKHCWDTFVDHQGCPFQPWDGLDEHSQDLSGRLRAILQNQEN

Large T antigen = Large T antigen (Simian virus 40, UniProt P03070); type: functional, Betapolyomavirus macacae;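 also: Confirmatory-stage PubChem screen for compounds that inhibit SV40 T antigen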
[2] = Luminescence Cell-Based Dose Response HTS to Identify Activators of Luciferase Translation or Activity in H4 […] Cells. [Related pubchem assays: 1829 (Project Summary), 1814 (Primary HTS)]; type: functional
[3] = Luminescence Cell-Based Dose Confirmation HTS to Identify Activators of 5'UTR Stem-Loop Driven Alpha-Synuclein mRNA Translation in H4 Neuroglioblastoma Cells. [Related pubchem assays: 1829 (Project Summary), 1814 (Primary HTS)]; type: functional
[4] = HIV-1 Vif–A3G interaction blockers – biochemical, TR-FRET, GST-Vif 1-94, biotin-A3G peptide, dose response retest, primary screen (AID 1117319); type: functional;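 also: TR-FRET signal of purified GST-Vif binding a biotinylated A3G peptide; inhibitors lower the FRET signal by blocking Vif and A3G binding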
[5] = biological target: T2, Voltage-gated N-type calcium channel alpha-1B subunit/Amyloid beta A4 precursor protein-binding family A member 1 (Homo sapiens, UniProt Q00975+Q02410); type: protein assay
T2 sequence (Q00975 whole entry): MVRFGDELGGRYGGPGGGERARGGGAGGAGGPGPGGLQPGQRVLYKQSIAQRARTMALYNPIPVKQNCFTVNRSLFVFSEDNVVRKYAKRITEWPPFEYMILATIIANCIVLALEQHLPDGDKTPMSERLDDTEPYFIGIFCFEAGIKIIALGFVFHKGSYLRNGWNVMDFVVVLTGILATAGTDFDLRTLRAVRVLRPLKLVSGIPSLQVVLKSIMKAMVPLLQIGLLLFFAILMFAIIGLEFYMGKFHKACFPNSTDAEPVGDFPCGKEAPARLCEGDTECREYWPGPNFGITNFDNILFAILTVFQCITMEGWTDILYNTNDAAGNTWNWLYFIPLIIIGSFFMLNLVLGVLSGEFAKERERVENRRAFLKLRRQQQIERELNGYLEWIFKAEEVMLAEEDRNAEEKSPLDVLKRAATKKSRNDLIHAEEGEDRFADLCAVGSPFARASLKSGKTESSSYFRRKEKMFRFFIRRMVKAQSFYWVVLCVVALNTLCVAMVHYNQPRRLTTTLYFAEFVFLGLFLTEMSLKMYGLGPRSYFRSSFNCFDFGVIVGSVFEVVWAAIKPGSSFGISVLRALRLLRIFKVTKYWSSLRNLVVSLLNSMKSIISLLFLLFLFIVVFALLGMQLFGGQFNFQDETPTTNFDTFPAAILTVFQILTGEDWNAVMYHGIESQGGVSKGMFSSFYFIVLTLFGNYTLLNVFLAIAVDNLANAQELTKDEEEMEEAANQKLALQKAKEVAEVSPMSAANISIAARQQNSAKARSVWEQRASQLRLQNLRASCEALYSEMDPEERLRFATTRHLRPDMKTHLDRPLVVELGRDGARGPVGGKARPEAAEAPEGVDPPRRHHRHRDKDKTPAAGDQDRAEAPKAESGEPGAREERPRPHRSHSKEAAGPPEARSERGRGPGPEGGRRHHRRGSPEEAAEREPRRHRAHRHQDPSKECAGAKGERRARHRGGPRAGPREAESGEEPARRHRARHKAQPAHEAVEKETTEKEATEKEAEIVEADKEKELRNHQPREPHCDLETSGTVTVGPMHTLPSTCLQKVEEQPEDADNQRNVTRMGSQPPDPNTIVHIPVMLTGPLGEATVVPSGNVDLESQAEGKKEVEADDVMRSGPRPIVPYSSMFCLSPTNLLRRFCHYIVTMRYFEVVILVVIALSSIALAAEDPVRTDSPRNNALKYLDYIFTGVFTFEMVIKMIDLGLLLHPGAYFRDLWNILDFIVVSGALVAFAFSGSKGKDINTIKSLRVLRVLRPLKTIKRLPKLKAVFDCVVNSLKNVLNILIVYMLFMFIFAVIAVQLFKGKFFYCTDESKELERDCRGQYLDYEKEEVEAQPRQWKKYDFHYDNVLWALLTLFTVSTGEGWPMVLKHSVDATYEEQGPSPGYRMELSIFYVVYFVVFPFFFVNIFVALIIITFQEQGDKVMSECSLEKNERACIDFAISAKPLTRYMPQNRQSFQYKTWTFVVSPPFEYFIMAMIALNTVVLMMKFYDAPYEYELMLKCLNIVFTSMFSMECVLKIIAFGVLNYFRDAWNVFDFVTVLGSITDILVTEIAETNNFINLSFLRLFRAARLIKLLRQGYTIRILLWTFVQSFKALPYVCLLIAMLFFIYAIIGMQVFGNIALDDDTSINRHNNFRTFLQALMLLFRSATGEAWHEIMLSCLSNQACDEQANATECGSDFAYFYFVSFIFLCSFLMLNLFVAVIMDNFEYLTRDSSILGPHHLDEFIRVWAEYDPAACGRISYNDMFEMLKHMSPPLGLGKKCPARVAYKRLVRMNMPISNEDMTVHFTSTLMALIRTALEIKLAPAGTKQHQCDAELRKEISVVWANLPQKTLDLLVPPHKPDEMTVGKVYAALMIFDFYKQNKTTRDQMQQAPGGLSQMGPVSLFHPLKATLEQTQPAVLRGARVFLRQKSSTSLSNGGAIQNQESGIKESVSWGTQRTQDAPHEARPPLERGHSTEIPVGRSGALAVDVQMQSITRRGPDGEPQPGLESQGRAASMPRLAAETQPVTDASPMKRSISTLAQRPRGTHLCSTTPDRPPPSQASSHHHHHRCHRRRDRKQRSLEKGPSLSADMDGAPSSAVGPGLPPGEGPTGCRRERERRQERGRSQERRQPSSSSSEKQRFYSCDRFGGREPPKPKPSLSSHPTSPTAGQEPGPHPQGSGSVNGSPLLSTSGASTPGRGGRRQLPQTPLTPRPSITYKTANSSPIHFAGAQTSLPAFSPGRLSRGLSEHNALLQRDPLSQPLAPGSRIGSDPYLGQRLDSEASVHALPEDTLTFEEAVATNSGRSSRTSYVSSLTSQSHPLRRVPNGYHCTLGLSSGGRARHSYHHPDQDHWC
T2 sequence (Q02410 whole entry): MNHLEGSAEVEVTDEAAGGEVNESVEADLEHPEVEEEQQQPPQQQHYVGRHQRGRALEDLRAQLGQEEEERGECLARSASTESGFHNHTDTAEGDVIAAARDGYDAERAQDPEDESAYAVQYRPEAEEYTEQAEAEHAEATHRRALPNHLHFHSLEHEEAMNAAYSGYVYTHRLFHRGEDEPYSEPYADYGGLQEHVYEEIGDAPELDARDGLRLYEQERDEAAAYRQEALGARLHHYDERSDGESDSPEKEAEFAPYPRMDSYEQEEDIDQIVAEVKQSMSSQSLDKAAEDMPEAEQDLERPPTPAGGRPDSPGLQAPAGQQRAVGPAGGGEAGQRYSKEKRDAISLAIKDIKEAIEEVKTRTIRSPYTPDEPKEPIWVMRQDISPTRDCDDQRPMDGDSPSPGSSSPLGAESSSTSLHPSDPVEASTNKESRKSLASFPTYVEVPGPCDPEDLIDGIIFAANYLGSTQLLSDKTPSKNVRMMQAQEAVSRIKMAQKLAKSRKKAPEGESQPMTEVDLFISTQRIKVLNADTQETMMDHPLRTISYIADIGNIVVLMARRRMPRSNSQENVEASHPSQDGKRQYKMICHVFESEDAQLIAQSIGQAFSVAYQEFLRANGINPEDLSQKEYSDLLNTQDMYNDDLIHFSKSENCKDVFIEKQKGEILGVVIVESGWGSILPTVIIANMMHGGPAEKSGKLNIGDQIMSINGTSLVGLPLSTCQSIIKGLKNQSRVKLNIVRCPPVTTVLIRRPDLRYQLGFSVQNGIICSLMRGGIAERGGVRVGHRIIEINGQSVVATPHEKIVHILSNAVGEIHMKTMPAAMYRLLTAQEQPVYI

H4 = experiment: Luminescence Cell-Based Dose Response HTS to Identify Activators of 5'UTR Stem-Loop Driven Prion Protein mRNA Translation in H4 Neuroglioblastoma Cells. [Related pubchem assays: 1829 (Project Summary), 1814 (Primary HTS)]; type: functional; conditions: Homo sapiens
[6] = biological target: DNA dC->dU-editing enzyme APOBEC-3A (Homo sapiens, UniProt P31941); experiment: A3A deaminase inhibition for selectivity – biochemical, dose response (AID 504722); type: functional
Chain of DNA dC->dU-editing enzyme APOBEC-3A (P31941 whole entry): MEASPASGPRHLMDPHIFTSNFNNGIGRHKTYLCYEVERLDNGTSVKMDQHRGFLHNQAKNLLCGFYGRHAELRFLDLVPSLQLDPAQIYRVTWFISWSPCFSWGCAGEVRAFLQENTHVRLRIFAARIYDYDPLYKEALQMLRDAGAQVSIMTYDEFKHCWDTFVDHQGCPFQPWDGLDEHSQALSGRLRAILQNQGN

[7] = biological target: T2, Voltage-gated N-type calcium channel alpha-1B subunit/Amyloid beta A4 precursor protein-binding family A member 1; type: protein assay; remark: listed apart in the source
Beta-galactosidase = Beta-galactosidase (Escherichia coli, UniProt Q8VNN2); experiment: PubChem AID 485352; type: functional
Chain of Beta-galactosidase (Q8VNN2 whole entry): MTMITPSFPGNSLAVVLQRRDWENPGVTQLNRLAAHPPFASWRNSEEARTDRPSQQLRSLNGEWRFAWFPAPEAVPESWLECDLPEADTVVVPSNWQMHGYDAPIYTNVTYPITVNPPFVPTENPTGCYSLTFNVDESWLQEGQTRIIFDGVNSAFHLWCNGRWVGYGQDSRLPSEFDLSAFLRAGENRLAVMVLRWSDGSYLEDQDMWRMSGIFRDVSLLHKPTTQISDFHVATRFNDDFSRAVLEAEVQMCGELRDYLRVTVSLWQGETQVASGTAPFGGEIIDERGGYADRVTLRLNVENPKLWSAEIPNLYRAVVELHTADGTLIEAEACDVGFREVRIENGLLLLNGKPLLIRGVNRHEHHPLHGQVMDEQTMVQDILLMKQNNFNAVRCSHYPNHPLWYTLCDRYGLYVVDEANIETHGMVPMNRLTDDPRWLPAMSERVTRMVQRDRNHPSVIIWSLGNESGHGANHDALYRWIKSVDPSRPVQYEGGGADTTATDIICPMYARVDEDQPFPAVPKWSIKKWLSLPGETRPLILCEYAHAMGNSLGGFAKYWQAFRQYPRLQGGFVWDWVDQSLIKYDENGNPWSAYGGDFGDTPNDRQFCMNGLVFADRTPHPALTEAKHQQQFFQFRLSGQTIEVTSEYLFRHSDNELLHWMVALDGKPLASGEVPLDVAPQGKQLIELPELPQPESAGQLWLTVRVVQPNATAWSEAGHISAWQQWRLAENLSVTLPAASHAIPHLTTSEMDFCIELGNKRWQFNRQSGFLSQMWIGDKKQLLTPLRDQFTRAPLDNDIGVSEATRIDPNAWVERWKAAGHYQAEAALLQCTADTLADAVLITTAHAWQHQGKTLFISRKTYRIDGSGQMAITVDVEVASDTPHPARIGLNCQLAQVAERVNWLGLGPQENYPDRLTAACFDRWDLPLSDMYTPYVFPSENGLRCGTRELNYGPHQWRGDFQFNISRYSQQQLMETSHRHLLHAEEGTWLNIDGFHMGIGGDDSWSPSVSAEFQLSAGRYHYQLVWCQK

[8] = biological target: T3, Type-1 angiotensin II receptor (Homo sapiens, UniProt P30556); experiment: antagonism of angiotensin II type 1 receptor – cell-based, uHTS hits, selectivity assay for APJ receptor antagonist project, dose response (AID 463214); type: functional;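 also: antagonist potency against angiotensin II stimulated AT1 response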
T3 sequence (P30556 whole entry): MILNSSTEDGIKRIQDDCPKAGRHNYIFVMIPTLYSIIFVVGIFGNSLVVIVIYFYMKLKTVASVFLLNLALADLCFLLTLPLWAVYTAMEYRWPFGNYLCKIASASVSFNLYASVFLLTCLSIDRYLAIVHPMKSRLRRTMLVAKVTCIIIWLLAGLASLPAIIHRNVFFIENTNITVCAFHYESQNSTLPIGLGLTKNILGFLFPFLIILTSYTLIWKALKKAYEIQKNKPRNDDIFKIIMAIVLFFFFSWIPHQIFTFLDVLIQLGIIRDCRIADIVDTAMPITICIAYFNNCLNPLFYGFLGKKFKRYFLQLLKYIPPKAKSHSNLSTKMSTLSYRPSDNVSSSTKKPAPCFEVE

Coagulation factor XII = biological target: T4, Coagulation factor XII (Homo sapiens, UniProt P00748); type: functional;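 also: activated factor XIIa alpha cleaving a fluorogenic AMC peptide substrate; inhibitor potency from loss of enzyme activity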
T4 sequence (P00748 whole entry): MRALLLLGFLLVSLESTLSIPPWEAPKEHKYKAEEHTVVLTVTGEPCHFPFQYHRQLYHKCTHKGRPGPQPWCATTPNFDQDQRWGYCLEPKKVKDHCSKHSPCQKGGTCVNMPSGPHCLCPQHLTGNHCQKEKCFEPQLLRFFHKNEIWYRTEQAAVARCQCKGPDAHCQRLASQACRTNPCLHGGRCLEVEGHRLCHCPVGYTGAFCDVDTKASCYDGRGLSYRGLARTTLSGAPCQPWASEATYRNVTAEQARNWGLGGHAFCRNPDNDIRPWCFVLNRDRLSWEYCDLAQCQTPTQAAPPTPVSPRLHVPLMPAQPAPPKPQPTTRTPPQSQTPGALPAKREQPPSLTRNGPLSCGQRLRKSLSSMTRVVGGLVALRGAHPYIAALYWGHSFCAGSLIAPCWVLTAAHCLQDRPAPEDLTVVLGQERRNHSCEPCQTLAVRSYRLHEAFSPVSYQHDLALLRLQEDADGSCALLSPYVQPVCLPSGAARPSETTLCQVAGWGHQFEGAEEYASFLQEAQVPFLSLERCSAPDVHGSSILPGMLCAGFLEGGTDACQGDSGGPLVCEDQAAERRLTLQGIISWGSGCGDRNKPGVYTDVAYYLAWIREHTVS

Prothrombin = Prothrombin (Homo sapiens, UniProt P00734); experiment: Thrombin 1536 HTS Dose Response Confirmation. [Related pubchem assays: 1046 (Thrombin 1536 HTS; hits were confirmed in this assay)]; type: functional
Troponin, cardiac muscle = Troponin, cardiac muscle (Homo sapiens, UniProt P19429+P45379+P63316); experiment: Fluorescence-based biochemical high throughput dose response assay for activators of the calcium sensitivity of cardiac Regulated Thin Filaments (RTF). [Related pubchem assays (depositor defined):AID493008, AID493018, AID504382, AID504383]; type: protein-complex assay
[9] = biological target: Peroxisome proliferator-activated receptor gamma/Nuclear receptor coactivator 2 (Homo sapiens, UniProt P37231); experiment: (§1) TR-FRET dose response biochemical High Throughput Screening assay for agonists of the steroid receptor coactivator 2 (SRC-2) recruitment by the peroxisome proliferator-activated receptor gamma (PPAR gamma): non-selective agonists. [Related pubchem assays: 1297, 1032 ]; type: functional
[10] = biological target: Peroxisome proliferator-activated receptor gamma/Nuclear receptor coactivator 3 (Homo sapiens, UniProt P37231); experiment: as §1, with “3 (SRC-3)” for “2 (SRC-2)”, “1301 (Confirmation screen.), 1048 (Primary screen.)]” for “1297, 1032 ]”; type: functional
[11] = biological target: Peroxisome proliferator-activated receptor gamma/Nuclear receptor coactivator 1 (Homo sapiens, UniProt P37231); experiment: as §1, with “1 (SRC-1)” for “2 (SRC-2)”, “assays (depositor defined):AID1300, AID1808, AID504735, AID631]” for “assays: 1297, 1032 ]”; type: protein assay
[12] = toxicity toward HepG2 liver cells – cell-based, plate reader, cherry-pick, antagonist series, cytotoxicity control, dose response (AID 743416); type: functional
[13] = blockade of melanocortin 4 receptor signaling – cell-based, plate reader, cherry pick, counter-screen for LGR2 antagonist project, dose response (AID 743444); type: functional;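 also: transfected HEK 293 cells stimulated with alpha-MSH peptide; potency of inhibitors of the alpha-MSH evoked signal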
[14] = A549 cell cytotoxicity, dose response, cytotoxicity control, plate reader, cherry-pick, antagonist series (AID 743412); type: functional, cell-based
[15] = viability loss in HEK293 cells – cell-based, plate reader, cherry-picked samples, cytotoxicity control, dose response (AID 743446); type: functional
[16] = blockers of bursicon-stimulated LGR2 cAMP reporter – cell-based, HEK293, CRE-luciferase reporter, cherry pick, set 2, dose response (AID 743343); type: functional;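 also: transfected cells were stimulated with diluted bursicon conditioned medium after compound addition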

## Cc1ccc(N2CSC3=C(C#N)C(c4cccs4)CC(=O)N3C2)cc1 (stereo unspecified)
Protein Tat
  IC50: > 100 µM (active)
[1]
  IC50: 5.19 µM (active)
Large T antigen
  IC50: > 100 µM (active)
[2]
  EC50: 17 µM (active)
[3]
  EC50: 13.2 µM (active)
[4]
  IC50: > 100 µM (active)
[5]
  IC50: 3.74 µM (active)
H4
  EC50: 7.71 µM (active)
[6]
  IC50: > 100 µM (inactive)
[7]
  IC50: > 50 µM (inactive)

## Cc1ccc(C(=O)COC(=O)CN2C(=O)C3CC=CCC3C2=O)cc1[N+](=O)[O-] (stereo unspecified)
Beta-galactosidase
  EC50: > 40 µM (inactive)
[8]
  IC50: 33.6 µM (not active)

## CC(=O)NNC(=S)NC(=O)c1ccccc1
Coagulation factor XII
  IC50: > 50 µM (inactive)
Prothrombin
  IC50: > 50 µM (inconclusive)

## CC(C(=O)c1ccc(Br)cc1)[n+]1cccc2ccccc21 (stereo unspecified)
Troponin, cardiac muscle
  EC50: 15.2 µM (inactive)

## Cc1ccc(S(=O)(=O)c2nc(-c3cccs3)oc2SCC(N)=O)cc1
[9]
  EC50: 8.44 µM (active)
[10]
  EC50: > 79.4 µM (not active)
[11]
  EC50: 7.72 µM (active)

## COC(=O)c1nnc(NC(C)=O)[nH]1
Coagulation factor XII
  IC50: 12.2 µM (active)

## Cc1ccc(-c2cc3c(nn2)-c2ccccc2C3=O)cc1
Beta-galactosidase
  EC50: > 40 µM (inactive)
[12]
  AC50: 35.8 µM (active)
[13]
  AC50: 1.65 µM (active)
[14]
  AC50: 25.5 µM (active)
[15]
  AC50: 18.3 µM (active)
[8]
  IC50: 2.89 µM (active)
[16]
  AC50: 1.11 µM (active)
